According to ChEMBL document CHEMBL5608181, “Discovery of indazole inhibitors for heat shock protein 90 as anti-cancer agents” (Eur J Med Chem, 2024):

Test system: BT-474
Test: Antiproliferative activity against human BT-474 cells assessed as inhibition of cell viability at 10 uM measured after 72 hrs by CellTiter 96 Aqueous One Solution Cell Proliferation Assay relative to control
Format: functional

COc1c(C(=O)Nc2nn(CCC3CCN(C)CC3)c3ccccc23)ccc2c1C=CC(C)(C)O2 gave an inhibition at 10 µM greater than 50%.
